Results taken from EP0149818A2, “1,4-Naphthoquinone derivatives, process for their preparation and their use as medicines” (Troponwerke GmbH & Co. KG, priority 1983, dated 1985).

How the values were obtained:
[1] = test system: durch Carrageenan ausgelöste ödem der Rattenpfote; assay: Carrageenan-induced rat paw oedema (method of Winter et al., modified: pure λ-carrageenan as 0,25 % suspension in saline); format: in vivo, Ratte; conditions: po, p.o, λ-carrageenan 0,25 % suspension, read-out: DE50 (the source's name)
Method: Die Verbindungen der allgemeinen Formel I hemmen das durch Carrageenan ausgelöste ödem der Rattenpfote stark. Zum Nachweis diente die Methode von Winter et al., Proc. Soc. Exp. Bil. Med. 111, 544 (1962), mit der Abwandlung, daß zur ödemauslösung reines λ-carrageenan als 0,25 % Suspension in physiologischer Kochsalzlösung verwendet wurde. Beispielhaft wurde in diesem Testmodell für Verb. 1 die DE50 = 0,5 mg/kg p.o ermittelt.

[2] = test system: Metabolisierung der Arachidonsäure über den Cyclooxygenaseweg; assay: Inhibition of arachidonic acid metabolism via the cyclooxygenase pathway (method of Brune et al.); format: cell-based
From the text: Wie die meisten NSAID (non steroidal antiinflammatory drugs) hemmen auch die meisten Verbindungen der allgemeinen Formel I die Metabolisierung der Arachidonsäure über den Cyclooxygenaseweg mehr oder weniger stark (Methode von Brune et al., Naunyn-Schmiedeberg's Arch. Pharmacol. 315, 269 (1981)). Die IC50 für Verb. 1 in diesem Test beträgt 2.6 x 10-^6 Mol/l.

[3] = test system: durch das chemotaktisch wirkende FMLP stimulierte Aggregation von PMN-Leukozyten; assay: Inhibition of FMLP-stimulated aggregation of PMN leukocytes (method of Cunningham et al.); format: cell-based; conditions: Leukocyte
From the text: Darüber hinaus konnte für eine Reihe von Verbindungen der allgemeinen Formel I nachgewiesen werden, daß sie die durch das chemotaktisch wirkende FMLP stimulierte Aggregation von PMN-Leukozyten hemmen und dadurch Anteil an der entzündungshemmenden Wirkung haben (Methode von Cunningham et al., Agents & Actions 11, 583 (1981)). Für Verb. 1 ist die IC50 in diesem Test 3.7 x 10^-5 Mol/l.

O=C1C(O)=C(NCc2ccccc2)C(=O)c2ccccc21 [Verb. 1, 2-Benzylamino-3-hydroxy-naphthochinon-1,4]
ED50 [1]: 0.5 mg/kg
IC50 [2]: 2.6 µM
IC50 [3]: 37 µM
